Source: patent US20210070748A1, “INHIBITORS OF BRUTONS TYROSINE KINASE” (Pharmacyclics LLC, priority 2015, published 2021)
Where two headings read alike, the source gives them in different places.

Legend:
Type in all cases: biochemical
BTK-WT = target: T1, BTK-WT (Homo sapiens, UniProt Q06187); assay: Btk in vitro inhibitory activity (one of Method A TR-FRET, Method B electrophoretic mobility shift, Method C radiometric filter binding); conditions: read-out: IC50 BTK-WT
T1 construct: purified from insect cells as a full-length construct containing an N-terminal 6X-His tag; His6 (N); made in house; host or cells: insect cells (baculovirus Sf21 in Method B)

LCK = LCK (Homo sapiens, UniProt P06239); assay: Inhibition of a panel of kinases, in vitro HotSpot kinase assay: LCK; conditions: read-out: IC50 LCK
JAK3 = target: T2, JAK3 (Homo sapiens, UniProt P52333); assay: Inhibition of a panel of kinases, in vitro HotSpot kinase assay: JAK3; conditions: read-out: IC50 JAK3
T2 sequence (P52333 1-1124): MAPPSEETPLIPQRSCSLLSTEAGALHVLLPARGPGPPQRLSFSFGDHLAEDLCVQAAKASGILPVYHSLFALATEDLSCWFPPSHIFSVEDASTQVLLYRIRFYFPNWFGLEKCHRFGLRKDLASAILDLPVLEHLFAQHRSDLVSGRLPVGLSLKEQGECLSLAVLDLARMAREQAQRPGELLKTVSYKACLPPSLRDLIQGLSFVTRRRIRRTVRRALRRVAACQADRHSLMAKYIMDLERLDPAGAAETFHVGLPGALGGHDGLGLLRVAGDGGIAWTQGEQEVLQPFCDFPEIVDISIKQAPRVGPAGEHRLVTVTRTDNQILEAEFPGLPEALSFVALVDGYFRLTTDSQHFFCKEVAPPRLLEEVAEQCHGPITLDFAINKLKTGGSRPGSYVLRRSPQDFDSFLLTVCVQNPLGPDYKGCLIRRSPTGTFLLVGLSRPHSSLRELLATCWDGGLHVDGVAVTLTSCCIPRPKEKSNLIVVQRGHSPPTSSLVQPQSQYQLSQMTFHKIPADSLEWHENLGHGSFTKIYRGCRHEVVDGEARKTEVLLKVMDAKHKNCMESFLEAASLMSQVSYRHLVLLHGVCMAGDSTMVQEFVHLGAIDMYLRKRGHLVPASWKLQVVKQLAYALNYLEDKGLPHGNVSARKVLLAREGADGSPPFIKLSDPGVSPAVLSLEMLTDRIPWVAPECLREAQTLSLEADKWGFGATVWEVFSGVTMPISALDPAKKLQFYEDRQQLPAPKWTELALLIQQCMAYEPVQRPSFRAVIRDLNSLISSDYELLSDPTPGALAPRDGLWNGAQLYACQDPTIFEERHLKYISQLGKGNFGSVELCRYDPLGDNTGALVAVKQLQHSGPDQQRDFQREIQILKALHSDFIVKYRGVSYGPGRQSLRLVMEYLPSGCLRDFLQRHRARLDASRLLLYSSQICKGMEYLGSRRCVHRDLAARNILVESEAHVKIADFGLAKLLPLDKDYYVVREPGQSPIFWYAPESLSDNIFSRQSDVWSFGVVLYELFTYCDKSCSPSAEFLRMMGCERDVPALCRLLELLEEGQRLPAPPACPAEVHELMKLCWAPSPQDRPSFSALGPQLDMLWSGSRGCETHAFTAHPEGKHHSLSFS

[1] = Table 13, A compounds, 1 μM ATP

T1 sequence (Q06187 whole entry): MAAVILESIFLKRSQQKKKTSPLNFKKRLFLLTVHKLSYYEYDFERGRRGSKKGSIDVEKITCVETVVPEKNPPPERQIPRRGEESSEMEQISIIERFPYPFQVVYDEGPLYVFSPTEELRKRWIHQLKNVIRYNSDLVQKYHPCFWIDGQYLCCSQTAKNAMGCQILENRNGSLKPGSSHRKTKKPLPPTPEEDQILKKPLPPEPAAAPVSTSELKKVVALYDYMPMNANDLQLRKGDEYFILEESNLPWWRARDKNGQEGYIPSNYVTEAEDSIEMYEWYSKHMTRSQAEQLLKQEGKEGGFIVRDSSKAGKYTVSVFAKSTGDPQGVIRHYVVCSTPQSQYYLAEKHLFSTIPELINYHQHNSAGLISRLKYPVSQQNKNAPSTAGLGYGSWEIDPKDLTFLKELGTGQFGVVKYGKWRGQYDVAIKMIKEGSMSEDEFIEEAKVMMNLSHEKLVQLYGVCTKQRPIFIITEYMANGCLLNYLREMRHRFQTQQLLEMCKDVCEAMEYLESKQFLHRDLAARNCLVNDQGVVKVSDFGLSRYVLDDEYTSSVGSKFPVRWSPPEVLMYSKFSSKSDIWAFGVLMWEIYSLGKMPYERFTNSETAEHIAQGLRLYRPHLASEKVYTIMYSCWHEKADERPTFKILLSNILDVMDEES
Chain of LCK (P06239 whole entry): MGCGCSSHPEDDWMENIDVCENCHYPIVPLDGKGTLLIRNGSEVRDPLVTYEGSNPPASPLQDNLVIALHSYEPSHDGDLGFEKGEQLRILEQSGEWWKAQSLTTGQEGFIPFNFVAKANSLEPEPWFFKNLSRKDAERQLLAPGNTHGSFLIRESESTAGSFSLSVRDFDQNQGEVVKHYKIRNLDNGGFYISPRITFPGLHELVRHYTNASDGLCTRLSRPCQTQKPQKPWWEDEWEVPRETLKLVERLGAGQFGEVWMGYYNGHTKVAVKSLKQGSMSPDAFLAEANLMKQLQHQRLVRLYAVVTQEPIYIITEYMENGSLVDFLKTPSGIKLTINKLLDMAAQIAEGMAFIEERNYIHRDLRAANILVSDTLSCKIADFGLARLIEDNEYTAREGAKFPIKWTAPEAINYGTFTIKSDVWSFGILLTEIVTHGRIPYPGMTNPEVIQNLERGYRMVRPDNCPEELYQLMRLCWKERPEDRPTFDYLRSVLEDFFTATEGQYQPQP

Row | IC50 (BTK-WT; Table 13, A compounds) [nM] | IC50 (LCK; [1]) [nM] | IC50 (JAK3; [1]) [nM] | IC50 (BTK-WT; E compounds, Table 17) [nM] | IC50 (LCK; E compounds, Table 17) [nM] | IC50 (JAK3; E compounds, Table 17) [nM] | Structure (SMILES)
1 |  |  |  | ≤ 10 | 10 to 100 | < 10 | C=CC(=O)N1CCC[C@@H](Nc2nnc(C(N)=O)c(Nc3cc(C)ns3)n2)C1 [Example E-11, (R)-3-(1-acryloylpiperidin-3-ylamino)-5-(3-methylisothiazol-5-ylamino)-1,2,4-triazine-6-carboxamide]
2 |  |  |  | ≤ 10 | 100 to 1000 | < 10 | C=CC(=O)N1CC[C@@H](N(C)c2nnc(C(N)=O)c(Nc3cc(C)ns3)n2)C1 [Example E-12, (R)-3-((1-acryloylpyrrolidin-3-yl)(methyl)amino)-5-(3-methylisothiazol-5-ylamino)-1,2,4-triazine-6-carboxamide]
3 |  |  |  | ≤ 10 | 100 to 1000 | < 10 | C=CC(=O)N1CCC[C@@H](Nc2nnc(C(N)=O)c(Nc3ccc(C(C)(C)C)cc3)n2)C1 [Example E-24, (R)-3-(1-acryloylpiperidin-3-ylamino)-5-(4-tert-butylphenylamino)-1,2,4-triazine-6-carboxamide]
4 |  |  |  | ≤ 10 | 100 to 1000 | < 10 | C=CC(=O)N1CCC[C@@H](Nc2nnc(C(N)=O)c(Nc3ccc(-c4ncco4)cc3)n2)C1 [Example E-40, (R)-3-(1-acryloylpiperidin-3-ylamino)-5-(4-(oxazol-2-yl)phenylamino)-1,2,4-triazine-6-carboxamide]
5 |  |  |  | ≤ 10 | 100 to 1000 | < 10 | C=CC(=O)N1CCC[C@@H](Nc2nnc(C(N)=O)c(Nc3ccc(-c4ncccn4)cc3)n2)C1 [Example E-41, (R)-3-(1-acryloylpiperidin-3-ylamino)-5-(4-(pyrimidin-2-yl)phenylamino)-1,2,4-triazine-6-carboxamide]
6 |  |  |  | ≤ 10 | 100 to 1000 | < 10 | C=CC(=O)N[C@@H]1CCCN(c2cnc(C(N)=O)c(Nc3cc(C)ns3)n2)[C@@H]1C [Example E-97, 5-((2R,3R)-3-acrylamido-2-methylpiperidin-1-yl)-3-(3-methylisothiazol-5-ylamino)pyrazine-2-carboxamide]

The remaining lines, values behind:

Row | Structure (SMILES) | IC50 (BTK-WT; Table 13, A compounds) [nM] | IC50 (LCK; [1]) [nM] | IC50 (JAK3; [1]) [nM] | IC50 (BTK-WT; E compounds, Table 17) [nM] | IC50 (LCK; E compounds, Table 17) [nM] | IC50 (JAK3; E compounds, Table 17) [nM]
7 | Cn1cc(Nc2nc(N3C[C@H](NC(=O)c4ccc(C5CC5)cc4)CC(F)(F)C3)cnc2C(N)=O)cn1 [Example A-188, (R)-5-(5-(4-cyclopropylbenzamido)-3,3-difluoropiperidin-1-yl)-3-(1-methyl-1H-pyrazol-4-ylamino)pyrazine-2-carboxamide] | ≤ 10 | 100 to 1000 | 1000 to 10000 |  |  | 
8 | C[C@@H]1[C@H](NC(=O)c2ccc(C3CC3)c(Cl)c2)CCCN1c1cnc(C(N)=O)c(Nc2ccc(N3CCN(C)CC3)cc2)n1 [Example A-189, 5-((2R,3R)-3-(3-chloro-4-cyclopropylbenzamido)-2-methylpiperidin-1-yl)-3-(4-(4-methylpiperazin-1-yl)phenylamino)pyrazine-2-carboxamide] | ≤ 10 | 100 to 1000 | 1000 to 10000 |  |  | 
9 | C[C@@H]1[C@H](NC(=O)c2ccc(C3CC3)nc2)CCCN1c1cnc(C(N)=O)c(Nc2cnn(C)c2)n1 [Example A-190, 5-((2R,3R)-3-(6-cyclopropylnicotinamido)-2-methylpiperidin-1-yl)-3-(1-methyl-1H-pyrazol-4-ylamino)pyr-azine-2-carboxamide] | ≤ 10 | 100 to 1000 | 1000 to 10000 |  |  | 
10 | C=CC(=O)N[C@@H]1CCCN(c2nnc(C(N)=O)c(Nc3ccc(C4(C)CCN(C5CC5)CC4)cc3)n2)[C@@H]1C [Example E-2, 3-((2R,3R)-3-acrylamido-2-methylpiperidin-1-yl)-5-((4-(1-cyclopropyl-4-methylpiperidin-4-yl)phenyl)amino)-1,2,4-triazine-6-carboxamide] |  |  |  | ≤ 10 | 100 to 1000 | 10 to 100
11 | C=CC(=O)N[C@@H]1CCCN(c2nnc(C(N)=O)c(Nc3ccc(Cl)cc3)n2)[C@@H]1C [Example E-5, 3-((2R,3R)-3-acrylamido-2-methylpiperidin-1-yl)-5-((4-chlorophenyl)amino)-1,2,4-triazine-6-carboxamide] |  |  |  | ≤ 10 | < 10 | < 10
12 | C=CC(=O)N1CCC[C@@H](Nc2nnc(C(N)=O)c(Nc3ccc(Cl)cc3)n2)[C@H]1C [Example E-7, 3-(((2R,3R)-1-acryloyl-2-methylpiperidin-3-yl)amino)-5-((4-chlorophenyl)amino)-1,2,4-triazine-6-carboxamide] |  |  |  | ≤ 10 | < 10 | < 10
13 | Cc1cc(Nc2nc(N3CC[C@H](O)[C@@H](N4CCC[C@@H](Nc5cc(Cl)cc(C(F)(F)F)c5)C4=O)C3)nnc2C(N)=O)sn1 [Example E-10, 3-((3R,3'S,4'S)-3-(3-chloro-5-(trifluoromethyl)phenylamino)-4′-hydroxy-2-oxo-1,3′-bipiperidin-1-yl)-5-(3-methylisothiazol-5-ylamino)-1,2,4-triazine-6-carboxamide] |  |  |  | ≤ 10 | < 10 | 1000 to 10000
14 | C=CC(=O)N1CC[C@@H](N(C)c2nnc(C(N)=O)c(Nc3ccc(C(C)C)cc3)n2)C1 [Example E-26, (R)-3-((1-acryloylpyrrolidin-3-yl)(methyl)amino)-5-(4-isopropylphenylamino)-1,2,4-triazine-6-carboxamide] |  |  |  | ≤ 10 | 1000 to 10000 | < 10
15 | C=CC(=O)N1CCC[C@@H](Nc2nnc(C(N)=O)c(Nc3ccc(C4CCN(C(=O)CC)CC4)cc3)n2)C1 [Example E-45, (R)-3-(1-acryloylpiperidin-3-ylamino)-5-(4-(1-propionylpiperidin-4-yl)phenylamino)-1,2,4-triazine-6-carboxamide] |  |  |  | ≤ 10 | 10 to 100 | < 10
16 | C=CC(=O)N[C@@H]1CCCN(c2cnc(C(N)=O)c(Nc3ccc(C4CCN(C5CC5)CC4)cc3)n2)[C@@H]1C [Example E-93, 5-((2R,3R)-3-acrylamido-2-methylpiperidin-1-yl)-3-(4-(1-cyclopropylpiperidin-4-yl)phenylamino)pyrazine-2-carboxamide] |  |  |  | ≤ 10 | 10 to 100 | < 10
17 | C=CC(=O)N1CCC[C@@H](N(C)c2cnc(C(N)=O)c(Nc3ccc(C(C)C)cc3)n2)C1 [Example E-102, (R)-5-((1-acryloylpiperidin-3-yl)(methyl)amino)-3-(4-isopropylphenylamino) pyrazine-2-carboxamide] |  |  |  | ≤ 10 | 1000 to 10000 | 10 to 100
18 | C=CC(=O)N1CCC[C@@H](N(C)c2cnc(C(N)=O)c(Nc3ccc(C4(C)CCN(C5CCCC5)CC4)cc3)n2)C1 [Example E-103, (R)-5-((1-acryloylpiperidin-3-yl)(methyl)amino)-3-(4-(1-cyclopentyl-4-methylpiperidin-4-yl)phenylamino)pyrazine-2-carboxamide] |  |  |  | ≤ 10 | < 10 | < 10
19 | C=CC(=O)N1CC[C@@H](N(C)c2cnc(C(N)=O)c(Nc3ccc(C4CCN(C5CCCC5)CC4)cc3)n2)C1 [Example E-109, (R)-5-((1-acryloylpyrrolidin-3-yl)(methyl)amino)-3-(4-(1-cyclopentylpiperidin-4-yl)phenylamino)pyrazine-2-carboxamide] |  |  |  | ≤ 10 | 100 to 1000 | < 10
20 | C=CC(=O)N1CC[C@@H](N(C)c2cnc(C(N)=O)c(Nc3cnn(CCOC)c3)n2)C1 [Example E-110, (R)-5-((1-acryloylpyrrolidin-3-yl)(methyl)amino)-3-(1-(2-methoxyethyl)-1H-pyrazol-4-ylamino)pyrazine-2-carboxamide] |  |  |  | ≤ 10 | 1000 to 10000 | < 10
21 | C=CC(=O)N1CC[C@@H](N(C)c2cnc(C(N)=O)c(Nc3ccc(C4CCN(C5CC5)CC4)cc3)n2)C1 [Example E-121, (R)-5-((1-acryloylpyrrolidin-3-yl)(methyl)amino)-3-(4-(1-cyclopropylpiperidin-4-yl)phenylamino)pyrazine-2-carboxamide] |  |  |  | ≤ 10 | 10 to 100 | < 10
